Measurements from patent publication US20130287805A1, “C18ORF54 PEPTIDES AND VACCINES INCLUDING THE SAME” (priority 2010, published 2013).
Entries after “also recorded” stand apart in the source; their conditions may differ.

Key:
[1] = system: peptide-pulsed T2 cells; assay: IFN-gamma ELISPOT assay of CTLs induced in vitro with peptide-pulsed DCs; assay type: cell-based, human; settings: CTLs from HLA-A*0201 positive donor, day 21, peptide-pulsed T2 versus no peptide control
From the text: Monocyte-derived dendritic cells (DCs) were used as antigen-presenting cells to induce cytotoxic T lymphocyte (CTL) responses against peptides presented on human leukocyte antigen (HLA). DCs were generated in vitro as described elsewhere (Nakahara S et al., Cancer Res 2003 Jul. 15, 63(14): 4112-8). Specifically, peripheral blood mononuclear cells isolated from a normal volunteer (HLA-A*0201 positive) by Ficoll-Plaque (Pharmacia) solution were separated by adherence to a plastic tissue culture dish (Becton Dickinson) so as to enrich them as the monocyte fraction. The monocyte-enriched population was cultured in the presence of 1000 U/ml of granulocyte-macrophage colony-stimulating factor (R&D System) and 1000 U/ml of interleukin (IL)-4 (R&D System) in AIM-V Medium (Invitrogen) containing 2% heat-inactivated autologous serum (AS). After 7 days of culture, the cytokine-induced DCs were pulsed with 20 micro-g/ml of each of the synthesized peptides in the presence of 3 micro-g/ml of beta 2-microglobulin for 3 hr at 37 degrees C. in AIM-V Medium. The generated cells appeared to express DC-associated molecules, such as CD80, CD83, CD86 and HLA class II, on their cell surfaces (data not shown). These peptide-pulsed DCs were then inactivated by X-irradiated (20 Gy) and mixed at a 1:20 ratio with autologous CD8+ T cells, obtained by positive selection with CD8 Positive Isolation Kit (Dynal). These cultures were set up in 48-well plates (Corning); each well contained 1.5×10^4 peptide-pulsed DCs, 3×10^5 CD8+ T cells and 10 ng/ml of IL-7 (R&D System) in 0.5 ml of AIM-V/2% AS medium. Three days later, these cultures were supplemented with IL-2 (CHIRON) to a final concentration of 20 IU/ml. On day 7 and 14, the T cells were further stimulated with the autologous peptide-pulsed DCs. The DCs were prepared each time by the same way described above. CTL was tested against peptide-pulsed T2 cells after the 3rd round of peptide stimulation on day 21 (Tanaka H et al., Br J Cancer Jan. 5, 2001, 84(1): 94-9; Umano Y et al., Br J Cancer Apr. 20, 2001, 84(8): 1052-7; Uchida N et al., Clin Cancer Res Dec. 15, 2004, 10(24): 8577-86; Suda T et al., Cancer Sci May 2006, 97(5): 411-9; Watanabe T et al., Cancer Sci August 2005, 96(8): 498-506).
(§1) Specifically, peptide-pulsed T2 (1×10^4/well) was prepared as stimulator cells. Cultured cells in 48 wells were used as responder cells. IFN-gamma ELISPOT assay and IFN-gamma ELISA assay were performed under manufacture procedure.

[2] = system: peptide-pulsed T2 cells; assay: IFN-gamma ELISA assay of expanded CTL lines; assay type: cell-based, human; settings: target cells pulsed with peptide versus without peptide pulse
Experimental: CTLs were expanded in culture using the method similar to the one described by Riddell et al. (Walter E A et al., N Engl J Med Oct. 19, 1995, 333(16): 1038-44; Riddell S R et al., Nat Med February 1996, 2(2): 216-23). A total of 5×10^4 CTLs were suspended in 25 ml of AIM-V/5% AS medium with 2 kinds of human B-lymphoblastoid cell lines, inactivated by Mitomycin C, in the presence of 40 ng/ml of anti-CD3 monoclonal antibody (Pharmingen). One day after initiating the cultures, 120 IU/ml of IL-2 were added to the cultures. The cultures were fed with fresh AIM-V/5% AS medium containing 30 IU/ml of IL-2 on days 5, 8 and 11 (Tanaka H et al., Br J Cancer Jan. 5, 2001, 84(1): 94-9; Umano Y et al., Br J Cancer Apr. 20, 2001, 84(8): 1052-7; Uchida N et al., Clin Cancer Res Dec. 15, 2004, 10(24): 8577-86; Suda T et al., Cancer Sci May 2006, 97(5): 411-9; Watanabe T et al., Cancer Sci August 2005, 96(8): 498-506).
as §1

[3] = system: peptide-pulsed T2 cells; assay: IFN-gamma ELISA assay of CTL clones established by limiting dilution; assay type: cell-based, human; settings: target cells pulsed with peptide versus without peptide pulse
Experimental: The dilutions were made to have 0.3, 1, and 3 CTLs/well in 96 round-bottomed micro titer plate (Nalge Nunc International). CTLs were cultured with 1×10^4 cells/well of 2 kinds of human B-lymphoblastoid cell lines, 30 ng/ml of anti-CD3 antibody, and 125 U/ml of IL-2 in a total of […] of AIM-V Medium containing 5% AS. 50 micro-l/well of IL-2 were added to the medium 10 days later so to reach a final concentration of 125 U/ml IL-2. CTL activity was tested on the 14th day, and CTL clones were expanded using the same method as described above (Uchida N et al., Clin Cancer Res Dec. 15, 2004, 10(24): 8577-86; Suda T et al., Cancer Sci May 2006, 97(5): 411-9; Watanabe T et al., Cancer Sci August 2005, 96(8): 498-506).
as §1

[4] = system: COS7 cells transfected with C18orf54 and HLA-A*0201; assay: Specific CTL activity against target cells expressing C18orf54 and HLA-A*0201; assay type: cell-based, African green monkey; settings: CTL clone
From the text: The cDNA encoding an open reading frame of target genes or HLA-A*0201 was amplified by PCR. The PCR-amplified product was cloned into the expression vector. The plasmids were transfected into COS7, which is the target genes and HLA-A*0201-null cell line, using lipofectamine 2000 (Invitrogen) according to the manufacturer's recommended procedures. After 2 days from transfection, the transfected cells were harvested with versene (Invitrogen) and used as the target cells (5×10^4 cells/well) for CTL activity assay.
The established CTL lines and clones raised against each peptide were examined for the ability to recognize target cells that express C18orf54 and HLA-A*0201 molecule. […] COS7 cells transfected with either full length of C18orf54 or HLA-A*0201 were prepared as the controls.

Sequence | Peptide specific CTL activity: IFN-gamma production (ELISPOT) [1] | IFN-gamma production of CTL lines (ELISA) [2] | further results
KLYRSASQA [SEQ ID NO: 14] | potent IFN-gamma production |  | 
QLKESMIPI [SEQ ID NO: 10] | potent IFN-gamma production |  | 
QMLFNLQAV [SEQ ID NO: 2] | potent IFN-gamma production | potent IFN-gamma production | 
SIPDFKYPV [SEQ ID NO: 4] | potent IFN-gamma production | potent IFN-gamma production | IFN-gamma production of CTL clones (ELISA) ([3]; listed as C18orf54-A02-9-255): potent IFN-gamma production
SLQKALHHL [SEQ ID NO: 5] | potent IFN-gamma production | potent IFN-gamma production | IFN-gamma production of CTL clones (ELISA) ([3]; listed as C18orf54-A02-9-507): potent IFN-gamma production; Specific CTL activity against COS7 cells expressing both C18orf54 and HLA-A*0201 ([4]; COS7 transfected with both full length C18orf54 and HLA-A*0201, listed as C18orf54-A02-9-507): potent CTL activity; also recorded: specific CTL activity; Specific CTL activity against control COS7 cells ([4]; COS7 transfected with either C18orf54 or HLA-A*0201 alone): no significant specific CTL activity
SLSDDKELV [SEQ ID NO: 3] | potent IFN-gamma production |  | 
SMIPITRSL [SEQ ID NO: 1] |  |  | Peptide specific CTL activity: IFN-gamma production (ELISPOT) ([1]; listed as C18orf54-A02-9-500): not observed
TSIPDFKYPV [SEQ ID NO: 32] | potent IFN-gamma production |  | 
VTFKSPVPV [SEQ ID NO: 9] | potent IFN-gamma production |  | 
WLTSQKSDL [SEQ ID NO: 20] | potent IFN-gamma production |  | 
